Measurements published in patent US6706740B2, “Fungicidal heterocyclic aromatic amides and their compositions, methods of use and preparation” (Dow AgroSciences LLC, priority 1999, dated 2004).
Read-outs that look alike come from different tables or passages of the source.

Legend:
[1] = tested on: Magnaporthe grisea (Pyricularia oryzae—PYRIOR); experiment: microbe, parasite or virus in culture; format: cell-based; details: Pyricularia oryzae, read-out: PYRIOR in vitro Growth Inhibition
[2] = tested on: Rhizoctonia solani (RHIZSO); experiment: microbe, parasite or virus in culture; format: cell-based; details: Rhizoctonia solani, read-out: RHIZSO in vitro Growth Inhibition
[3] = tested on: Mycosphaerella graminicola (Septoria tritici—SEPTTR); experiment: In vitro fungal growth inhibition, Mycosphaerella graminicola (SEPTTR); format: cell-based; details: Zymoseptoria tritici, read-out: SEPTTR in vitro Growth Inhibition
[4] = tested on: Stagonospora nodorum (Leptosphaeria nodorum—LEPTNO); experiment: In vitro fungal growth inhibition, Stagonospora nodorum (LEPTNO); format: cell-based; details: Leptosphaeria, read-out: LEPTNO in vitro Growth Inhibition
Ustilago maydis (USTIMA) = experiment: microbe, parasite or virus in culture; format: cell-based; details: Mycosarcoma maydis, read-out: USTIMA in vitro Growth Inhibition
[5] = tested on: Phytophthora infestans (PHYTIN); experiment: microbe, parasite or virus in culture; format: cell-based; details: Phytophthora infestans, read-out: PHYTIN in vitro Growth Inhibition
[6] = tested on: Phytophthora infestans—PHYTIN; experiment: whole plant or invertebrate; format: in vivo; details: Phytophthora, in Solanum lycopersicum, 24 h, read-out: PHYTIN in vivo 1 Day Protectant
[7] = tested on: Puccinia recondita—PUCCRT; experiment: Brown Rust of Wheat, in vivo whole plant, 24 Hour Protectant; details: Puccinia, control of fungal infection vs untreated plants, read-out: PUCCRT in vivo 1 Day Protectant
Erysiphe graminis—ERYSGT = experiment: Powdery Mildew of Wheat, in vivo whole plant, 24 Hour Protectant; details: Erysiphe, control of fungal infection vs untreated plants, read-out: ERYSGT in vivo 1 Day Protectant
Septoria tritici—SEPTTR = experiment: Leaf Blotch of Wheat, in vivo whole plant, 24 Hour Protectant; details: Zymoseptoria tritici, 24 h, control of fungal infection vs untreated plants, read-out: SEPTTR in vivo 1 Day Protectant
[8] = tested on: Leptosphaeria nodorum—LEPTNO; experiment: Glume Blotch of Wheat, in vivo whole plant, 24 Hour Protectant; details: Leptosphaeria, control of fungal infection vs untreated plants, read-out: LEPTNO in vivo 1 Day Protectant
[9] = 100 ppm spray, wheat, 24 hour protectant
[10] = wheat plants sprayed at 100 ppm, inoculated after 24 hours

| Compound | inhibition at 25 ppm [1] [%] | inhibition at 25 ppm [2] [%] | inhibition at 25 ppm ([3]; 25 ppm in growth medium) [%] | inhibition at 25 ppm ([4]; 25 ppm in growth medium) [%] | inhibition at 25 ppm (Ustilago maydis (USTIMA)) [%] | inhibition at 25 ppm [5] [%] | pest or weed control at 100 ppm [6] [%] | pest or weed control at 100 ppm [7, 9] [%] | pest or weed control at 100 ppm (Erysiphe graminis—ERYSGT; [9]) [%] | pest or weed control at 100 ppm (Septoria tritici—SEPTTR; [9]) [%] | pest or weed control at 100 ppm [8, 9] [%] | melting point [°C] | inhibition at 25 ppm ([3]; 25 ppm in the growth medium) [%] | inhibition at 25 ppm ([4]; 25 ppm in the growth medium) [%] | pest or weed control at 100 ppm [7, 10] [%] | pest or weed control at 100 ppm (Erysiphe graminis—ERYSGT; [10]) [%] | pest or weed control at 100 ppm (Septoria tritici—SEPTTR; [10]) [%] | pest or weed control at 100 ppm [8, 10] [%] |
| --- | --- | --- | --- | --- | --- | --- | --- | --- | --- | --- | --- | --- | --- | --- | --- | --- | --- | --- |
| COc1ccnc(C(=O)Nc2cccc(OC3CC(C)(C)OC(C)(C)C3)c2)c1O [Compound 460] | < 80 | < 80 | < 80 | < 80 | < 80 | < 80 | < 25 | 25 to 74 | 25 to 74 | 25 to 74 | 25 to 74 | 149 to 153 |  |  |  |  |  |  |
| COc1ccnc(C(=O)Nc2ccc(Oc3cc(C(F)(F)F)ccn3)cc2)c1O [Compound 461] | < 80 | < 80 |  |  | < 80 | < 80 | < 25 |  |  |  |  | 169 to 171 | < 80 | < 80 | 25 to 74 | < 25 | 25 to 74 | 25 to 74 |
| COc1ccnc(C(=O)Nc2ccc(Oc3ccc(C(F)(F)F)cn3)cc2)c1O [Compound 462] | > 80 | < 80 |  |  | < 80 | < 80 | < 25 |  |  |  |  | 141 to 143 | > 80 | < 80 | 25 to 74 | < 25 | 25 to 74 | 25 to 74 |
| COc1ccnc(C(=O)Nc2ccc(Oc3cccc(C(F)(F)F)n3)cc2)c1O [Compound 463] | < 80 | < 80 |  |  | < 80 | < 80 | < 25 |  |  |  |  | 140 to 141.5 | < 80 | < 80 | < 25 | < 25 | 25 to 74 | < 25 |
| COc1ccnc(C(=O)Nc2ccc(Oc3cc(C(F)(F)F)cc(C(F)(F)F)n3)cc2)c1O [Compound 464] | < 80 | < 80 |  |  | < 80 | < 80 | < 25 |  |  |  |  | 179 to 181 | < 80 | < 80 | < 25 | < 25 | 25 to 74 | 25 to 74 |
| COc1ccnc(C(=O)Nc2ccc(Oc3ccnc(C(F)(F)F)c3)cc2)c1O [Compound 465] | > 80 | < 80 |  |  | < 80 | < 80 | < 25 |  |  |  |  | 160 to 162 | < 80 | < 80 | < 25 | < 25 | 25 to 74 | 25 to 74 |
| COc1ccnc(C(=O)Nc2ccc(Oc3cc(C(F)(F)F)nc(C(F)(F)F)c3)cc2)c1O [Compound 466] | < 80 | < 80 |  |  | < 80 | < 80 | < 25 |  |  |  |  | 198 to 200 | < 80 | > 80 | < 25 | < 25 | 25 to 74 | 25 to 74 |
